From US9850227B2 (YUHAN CORPORATION, priority 2011, dated 2017)

The compounds below were run against T1, human 5-HT4(a) (Homo sapiens, UniProt Q13639) (assay: Evaluation of agonistic activity in CHO-K1 cells expressing human 5-HT4(a) (GeneBIAzer HTR4-CRE-bla CHO-K1 cells, beta-lactamase fluorescence ratio, EC50 from 8 concentrations)).
T1 construct: host or cells: GeneBIAzer HTR4-CRE-bla CHO-K1 cells
Format: cell-based
How it was run: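 HTR4-CRE-bla CHO-K1 cells (10^4 per well, overnight in 1% FBS medium) exposed to compound for 5 h, then beta-lactamase substrate 2 h in the dark. Fluorescence ratio at 465/535 nm after 410 nm excitation; EC50 by non-linear regression over 8 concentrations.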

T1 sequence (Q13639 1-387 isoform Q13639-2): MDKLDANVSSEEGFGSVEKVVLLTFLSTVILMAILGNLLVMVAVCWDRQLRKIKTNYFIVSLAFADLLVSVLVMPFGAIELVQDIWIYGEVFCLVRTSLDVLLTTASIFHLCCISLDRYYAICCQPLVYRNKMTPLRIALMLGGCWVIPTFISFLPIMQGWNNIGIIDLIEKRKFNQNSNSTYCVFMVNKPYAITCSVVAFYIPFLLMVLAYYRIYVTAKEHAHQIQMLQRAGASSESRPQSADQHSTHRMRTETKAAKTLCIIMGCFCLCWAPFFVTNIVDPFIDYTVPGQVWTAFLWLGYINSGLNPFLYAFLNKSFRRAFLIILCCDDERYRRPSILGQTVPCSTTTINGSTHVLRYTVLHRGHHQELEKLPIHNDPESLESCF

Structure (SMILES)	EC50 [nM]
CCCc1cc(N2CCC[C@@H](NC)C2)nc(Nc2ccc(C)c(C(F)(F)F)c2)n1 [Example 324, (R)—N-[4-methyl-3-(trifluoromethyl)phenyl]-4-[3-(methylamino)piperidin-1-yl]-6-propylpyrimidin-2-amine]	0.0087
CCCc1cc(N2CCC[C@@H](NC(C)=O)C2)nc(Nc2cc(N)cc(C#N)c2)n1 [Example 274, (R)—N-{1-[2-(3-amino-5-cyanophenylamino)-6-propylpyrimidin-4-yl]piperidin-3-yl}acetamide]	0.006
CCCc1cc(N2CCCCC2CCO)nc(Nc2cccc(OC)c2)n1 (stereo not drawn) [Example 138, 2-{1-[2-(3-methoxyphenylamino)-6-propylpyrimidin-4-yl]piperidin-2-yl}ethanol]	0.46
CCCc1cc(N2CCC[C@@H](NCC3CC3)C2)nc(Nc2ccc(F)c(C#N)c2)n1 [Example 226, (R)-5-{4-[3-(cyclopropylmethylamino)piperidin-1-yl]-6-propylpyrimidin-2-ylamino}-2-fluorobenzonitrile]	0.071
CCCc1cc(N2CCCCC2CC)nc(Nc2cccc(SC)c2)n1 (stereo not drawn) [Example 104, 4-(2-ethylpiperidin-1-yl)-N-[3-(methylthio)phenyl]-6-propylpyrimidin-2-amine]	0.36
CCCc1cc(N2CCC[C@H](NCc3cccs3)C2)nc(Nc2ccc(C)c(C#N)c2)n1 [Example 160, (S)-2-methyl-5-(4-propyl-6-{3-[(thiophen-2-ylmethyl)amino]piperidin-1-yl}pyrimidin-2-ylamino)benzonitrile]	0.125
CCCc1cc(N2CCNC[C@H]2C)nc(Nc2ccc(F)c([N+](=O)[O-])c2)n1 [Example 121, (R)-N-(4-fluoro-3-nitrophenyl)-4-(2-methylpiperazin-1-yl)-6-propylpyrimidin-2-amine]	0.093
CCCc1cc(N2CCNC[C@H]2C)nc(Nc2ccc(F)c(N)c2)n1 [Example 123, (R)-4-fluoro-N^1-[4-(2-methylpiperazin-1-yl)-6-propylpyrimidin-2-yl]benzene-1,3-diamine]	0.121
CCCc1cc(N2CCCCC2CCO)nc(Nc2ccc(C)c(N)c2)n1 (stereo not drawn) [Example 180, 2-{1-[2-(3-amino-4-methylphenylamino)-6-propylpyrimidin-4-yl]piperidin-2-yl}ethanol]	0.153
CCCCc1cc(N2CCC[C@@H](NC)C2)nc(Nc2ccc(C)c(F)c2)n1 [Example 331, (R)-4-butyl-N-(3-fluoro-4-methylphenyl)-6-[3-(methylamino)piperidin-1-yl]pyrimidin-2-amine]	0.218
CCCc1cc(N2CCNC[C@H]2C)nc(Nc2ccc(N)c(C(F)(F)F)c2)n1 [Example 124, (R)-N^1-[4-(2-methylpiperazin-1-yl)-6-propylpyrimidin-2-yl]-3-(trifluoromethyl)benzene-1,4-diamine]	0.028
CCCCCN[C@@H]1CCCN(c2cc(CCC)nc(Nc3ccc(C)c(C#N)c3)n2)C1 [Example 208, (R)-2-methyl-5-{4-[3-(pentylamino)piperidin-1-yl]-6-propylpyrimidin-2-ylamino}benzonitrile]	0.029
CCCc1cc(N2CCCCC2CCO)nc(Nc2ccc(F)c(C#N)c2)n1 (stereo not drawn) [Example 178, 2-fluoro-5-{4-[2-(2-hydroxyethyl)piperidin-1-yl]-6-propylpyrimidin-2-ylamino}benzonitrile]	0.082
CCCc1cc(N2CCOCC2)nc(Nc2ccc3cc[nH]c3c2)n1 [Example 77, N-(4-morpholino-6-propylpyrimidin-2-yl)-1H-indol-6-amine]	0.084
CCCc1cc(N2CCC[C@@H](NCC)C2)nc(Nc2ccc(N)c([N+](=O)[O-])c2)n1 [Example 288, (R)—N^1-[4-(3-ethylaminopiperidin-1-yl)-6-propylpyrimidin-2-yl]-3-nitrobenzene-1,4-diamine]	0.0046
CCCN[C@@H]1CCCN(c2cc(CCC)nc(Nc3ccc(F)c(C#N)c3)n2)C1 [Example 225, (R)-2-fluoro-5-{4-[3-(propylamino)piperidin-1-yl]-6-propylpyrimidin-2-ylamino}benzonitrile]	0.021
CCCc1cc(N2CCNC[C@H]2C)nc(Nc2ccc(N)c(C#N)c2)n1 [Example 127, (R)-2-amino-5-[4-(2-methylpiperazin-1-yl)-6-propylpyrimidin-2-ylamino]benzonitrile]	0.053
CCCc1cc(N2CCCCC2CC)nc(Nc2ccc(F)c([N+](=O)[O-])c2)n1 (stereo not drawn) [Example 100, 4-(2-ethylpiperidin-1-yl)-N-(4-fluoro-3-nitrophenyl)-6-propylpyrimidin-2-amine]	0.2
CCCCc1cc(N2CCC[C@@H](N)C2)nc(Nc2ccc(C)c([N+](=O)[O-])c2)n1 [Example 339, (R)-4-(3-aminopiperidin-1-yl)-6-butyl-N-(4-methyl-3-nitrophenyl)pyrimidin-2-amine]	0.017
CCCc1cc(N2CCCCC2CCO)nc(Nc2ccc(N)c([N+](=O)[O-])c2)n1 (stereo not drawn) [Example 176, 2-{1-[2-(4-amino-3-nitrophenylamino)-6-propylpyrimidin-4-yl]piperidin-2-yl}ethanol]	0.018
CCCc1cc(N2CCCCC2CCO)nc(Nc2ccc(Cl)c([N+](=O)[O-])c2)n1 (stereo not drawn) [Example 24, 2-{1-[2-(4-chloro-3-nitrophenylamino)-6-propylpyrimidin-4-yl]piperidin-2-yl}ethanol]	0.026
CCCCN[C@@H]1CCCN(c2cc(CCC)nc(Nc3ccc(C)c(C#N)c3)n2)C1 [Example 207, (R)-5-{4-[3-(butylamino)piperidin-1-yl]-6-propylpyrimidin-2-ylamino}-2-methylbenzonitrile]	0.013
CCCc1cc(N2CCC[C@@H](NC(=O)CO)C2)nc(Nc2ccc(F)c(C#N)c2)n1 [Example 246, (R)—N-{1-[2-(3-cyano-4-fluorophenylamino)-6-propylpyrimidin-4-yl]piperidin-3-yl}-2-hydroxyacetamide]	0.06

Second part, the compound after the results:

EC50 [nM]	Structure (SMILES)
0.054	CCCc1cc(N2CCC[C@H](NCC(C)(C)C)C2)nc(Nc2ccc(C)c(C#N)c2)n1 [Example 158, (S)-2-methyl-5-{4-[3-(neopentylamino)piperidin-1-yl]-6-propylpyrimidin-2-ylamino}benzonitrile]
0.046	CCCc1cc(N2CCC[C@H](NCc3ccc[nH]3)C2)nc(Nc2ccc(C)c(C#N)c2)n1 [Example 159, (S)-5-(4-{3-[(1H-pyrrol-2-yl)methylamino]piperidin-1-yl}-6-propylpyrimidin-2-ylamino)-2-methylbenzonitrile]
0.0032	CCCc1cc(N2CCC[C@@H](NC)C2)nc(Nc2cc(N)cc(C(F)(F)F)c2)n1 [Example 284, (R)—N^1-[4-(3-methylaminopiperidin-1-yl)-6-propylpyrimidin-2-yl]-5-(trifluoromethyl)benzene-1,3-diamine]
0.0082	CCCc1cc(N2CCC[C@@H](NC(C)=O)C2)nc(Nc2ccc(C)c(C#N)c2)n1 [Example 220, (R)—N-{1-[2-(3-cyano-4-methylphenylamino)-6-propylpyrimidin-4-yl]piperidin-3-yl}acetamide]
0.015	CCCc1cc(N2CCC[C@@H](NC)C2)nc(Nc2ccc(F)c(N)c2)n1 [Example 306, (R)-4-fluoro-N^1-{4-[3-(methylamino)piperidin-1-yl]-6-propylpyrimidin-2-yl}benzene-1,3-diamine]
0.022	CCCc1cc(N2CCC[C@@H](NCCC(C)C)C2)nc(Nc2ccc(C)c(C#N)c2)n1 [Example 210, (R)-5-{4-[3-(isopentylamino)piperidin-1-yl]-6-propylpyrimidin-2-ylamino}-2-methylbenzonitrile]
0.051	CCCc1cc(N2CCNC[C@H]2C)nc(Nc2ccc(F)c(C#N)c2)n1 [Example 125, (R)-2-fluoro-5-[4-(2-methylpiperazin-1-yl)-6-propylpyrimidin-2-ylamino]benzonitrile]
0.046	CCCc1cc(N2CCC[C@@H](NC(C)=O)C2)nc(Nc2cccc(C#N)c2)n1 [Example 273, (R)—N-{1-[2-(3-cyanophenylamino)-6-propylpyrimidin-4-yl]piperidin-3-yl}acetamide]
0.034	CCCCc1cc(N2CCC[C@@H](N)C2)nc(Nc2ccc(C)c(C(F)(F)F)c2)n1 [Example 343, (R)-4-(3-aminopiperidin-1-yl)-6-butyl-N-[4-methyl-3-(trifluoromethyl)phenyl]pyrimidin-2-amine]
0.073	CCCc1cc(N2CCC[C@@H](NC)C2)nc(Nc2ccc(F)c(C#N)c2)n1 [Example 282, (R)-2-fluoro-5-[4-(3-methylaminopiperidin-1-yl)-6-propylpyrimidin-2-ylamino]benzonitrile]
0.004	CCCCc1cc(N2CCC[C@@H](NCC)C2)nc(Nc2ccc(C)c(C#N)c2)n1 [Example 299, (R)-5-({4-butyl-6-[3-(ethylamino)piperidin-1-yl]pyrimidin-2-yl}amino)-2-methylbenzonitrile]
0.24	CCCc1cc(N2CCCC3CCCCC32)nc(Nc2cccc(C#N)c2)n1 (stereo not drawn) [Example 187, 3-[4-(octahydroquinolin-1(2H)-yl)-6-propylpyrimidin-2-ylamino]benzonitrile]
0.024	CCCc1cc(N2CCNC[C@H]2C)nc(Nc2ccc3cc[nH]c3c2)n1 [Example 118, (R)-N-[4-(2-methylpiperazin-1-yl)-6-propylpyrimidin-2-yl]-1H-indol-6-amine]
0.0041	CCCCc1cc(N2CCC[C@@H](N)C2)nc(Nc2cc(N)cc(C#N)c2)n1 [Example 342, (R)-3-amino-5-{[4-(3-aminopiperidin-1-yl)-6-butylpyrimidin-2-yl]amino}benzonitrile]
0.0065	CCCc1cc(N2CCC[C@@H](NCC)C2)nc(Nc2ccc(F)c(N)c2)n1 [Example 289, (R)—N^1-[4-(3-ethylaminopiperidin-1-yl)-6-propylpyrimidin-2-yl]-4-fluorobenzene-1,3-diamine]
0.012	CCCCc1cc(N2CCC[C@@H](NC(C)=O)C2)nc(Nc2ccc(Cl)c([N+](=O)[O-])c2)n1 [Example 235, (R)—N-{1-[6-butyl-2-(4-chloro-3-nitrophenylamino)pyrimidin-4-yl]piperidin-3-yl}acetamide]
